Read-outs that look alike come from different tables or passages of the source.
How the values were obtained:
Assay type in all cases: binding
[1] = target: T1, HeLa cell extract proteins (Homo sapiens, UniProt P33992)
T1 construct: endogenous in cells; host or cells: HeLa cell extract
T1 sequence (P33992 1-734): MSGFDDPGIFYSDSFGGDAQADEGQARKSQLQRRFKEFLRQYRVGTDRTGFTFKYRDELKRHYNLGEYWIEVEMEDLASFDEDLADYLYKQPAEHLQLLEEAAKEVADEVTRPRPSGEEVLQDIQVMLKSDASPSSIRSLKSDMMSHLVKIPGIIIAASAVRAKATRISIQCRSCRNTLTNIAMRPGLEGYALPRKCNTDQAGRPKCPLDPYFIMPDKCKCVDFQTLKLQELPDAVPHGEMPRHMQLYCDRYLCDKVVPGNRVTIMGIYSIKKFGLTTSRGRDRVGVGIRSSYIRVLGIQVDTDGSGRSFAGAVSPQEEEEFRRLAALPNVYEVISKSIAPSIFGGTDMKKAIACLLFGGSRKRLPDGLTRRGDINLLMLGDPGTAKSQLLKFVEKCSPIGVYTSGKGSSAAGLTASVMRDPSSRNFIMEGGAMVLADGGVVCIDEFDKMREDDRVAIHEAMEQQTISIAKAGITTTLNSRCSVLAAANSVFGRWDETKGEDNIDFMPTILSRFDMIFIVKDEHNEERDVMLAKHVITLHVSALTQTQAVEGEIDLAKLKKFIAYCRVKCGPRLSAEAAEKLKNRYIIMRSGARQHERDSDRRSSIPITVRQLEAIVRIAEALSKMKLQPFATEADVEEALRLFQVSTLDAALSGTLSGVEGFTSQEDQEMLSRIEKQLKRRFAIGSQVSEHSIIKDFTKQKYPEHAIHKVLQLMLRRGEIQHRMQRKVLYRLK

[2] = target: T2, HeLa cell extract proteins (Homo sapiens, UniProt O43592)
T2 construct: endogenous in cells; host or cells: HeLa cell extract
T2 sequence (O43592 1-962): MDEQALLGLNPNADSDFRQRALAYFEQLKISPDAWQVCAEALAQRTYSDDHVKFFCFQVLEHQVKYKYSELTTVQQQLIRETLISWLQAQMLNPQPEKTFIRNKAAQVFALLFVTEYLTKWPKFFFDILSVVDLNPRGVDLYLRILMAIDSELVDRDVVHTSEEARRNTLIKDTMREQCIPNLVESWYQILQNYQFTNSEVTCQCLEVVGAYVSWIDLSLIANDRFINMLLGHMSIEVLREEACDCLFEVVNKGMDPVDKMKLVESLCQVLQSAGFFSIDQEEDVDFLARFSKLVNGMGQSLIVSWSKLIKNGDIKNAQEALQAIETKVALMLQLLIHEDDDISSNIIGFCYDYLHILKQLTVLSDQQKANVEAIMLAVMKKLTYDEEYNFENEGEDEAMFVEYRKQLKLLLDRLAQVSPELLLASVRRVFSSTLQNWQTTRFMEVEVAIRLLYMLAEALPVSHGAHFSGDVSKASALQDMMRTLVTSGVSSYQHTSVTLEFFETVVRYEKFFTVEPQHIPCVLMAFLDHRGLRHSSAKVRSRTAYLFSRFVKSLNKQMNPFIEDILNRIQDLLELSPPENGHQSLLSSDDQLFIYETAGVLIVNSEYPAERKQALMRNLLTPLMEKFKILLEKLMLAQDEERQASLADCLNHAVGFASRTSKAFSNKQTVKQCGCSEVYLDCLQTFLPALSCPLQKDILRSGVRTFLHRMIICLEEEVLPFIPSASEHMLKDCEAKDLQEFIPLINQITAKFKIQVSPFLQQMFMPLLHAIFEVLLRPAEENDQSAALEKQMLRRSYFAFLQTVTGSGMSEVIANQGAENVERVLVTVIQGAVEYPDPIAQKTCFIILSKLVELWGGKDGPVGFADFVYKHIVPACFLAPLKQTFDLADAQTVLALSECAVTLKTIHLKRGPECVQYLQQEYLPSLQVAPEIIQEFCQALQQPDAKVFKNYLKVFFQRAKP

[3] = target: T3, HeLa cell extract proteins (Homo sapiens, UniProt Q99683)
T3 construct: endogenous in cells; host or cells: HeLa cell extract
T3 sequence (Q99683 1-1374): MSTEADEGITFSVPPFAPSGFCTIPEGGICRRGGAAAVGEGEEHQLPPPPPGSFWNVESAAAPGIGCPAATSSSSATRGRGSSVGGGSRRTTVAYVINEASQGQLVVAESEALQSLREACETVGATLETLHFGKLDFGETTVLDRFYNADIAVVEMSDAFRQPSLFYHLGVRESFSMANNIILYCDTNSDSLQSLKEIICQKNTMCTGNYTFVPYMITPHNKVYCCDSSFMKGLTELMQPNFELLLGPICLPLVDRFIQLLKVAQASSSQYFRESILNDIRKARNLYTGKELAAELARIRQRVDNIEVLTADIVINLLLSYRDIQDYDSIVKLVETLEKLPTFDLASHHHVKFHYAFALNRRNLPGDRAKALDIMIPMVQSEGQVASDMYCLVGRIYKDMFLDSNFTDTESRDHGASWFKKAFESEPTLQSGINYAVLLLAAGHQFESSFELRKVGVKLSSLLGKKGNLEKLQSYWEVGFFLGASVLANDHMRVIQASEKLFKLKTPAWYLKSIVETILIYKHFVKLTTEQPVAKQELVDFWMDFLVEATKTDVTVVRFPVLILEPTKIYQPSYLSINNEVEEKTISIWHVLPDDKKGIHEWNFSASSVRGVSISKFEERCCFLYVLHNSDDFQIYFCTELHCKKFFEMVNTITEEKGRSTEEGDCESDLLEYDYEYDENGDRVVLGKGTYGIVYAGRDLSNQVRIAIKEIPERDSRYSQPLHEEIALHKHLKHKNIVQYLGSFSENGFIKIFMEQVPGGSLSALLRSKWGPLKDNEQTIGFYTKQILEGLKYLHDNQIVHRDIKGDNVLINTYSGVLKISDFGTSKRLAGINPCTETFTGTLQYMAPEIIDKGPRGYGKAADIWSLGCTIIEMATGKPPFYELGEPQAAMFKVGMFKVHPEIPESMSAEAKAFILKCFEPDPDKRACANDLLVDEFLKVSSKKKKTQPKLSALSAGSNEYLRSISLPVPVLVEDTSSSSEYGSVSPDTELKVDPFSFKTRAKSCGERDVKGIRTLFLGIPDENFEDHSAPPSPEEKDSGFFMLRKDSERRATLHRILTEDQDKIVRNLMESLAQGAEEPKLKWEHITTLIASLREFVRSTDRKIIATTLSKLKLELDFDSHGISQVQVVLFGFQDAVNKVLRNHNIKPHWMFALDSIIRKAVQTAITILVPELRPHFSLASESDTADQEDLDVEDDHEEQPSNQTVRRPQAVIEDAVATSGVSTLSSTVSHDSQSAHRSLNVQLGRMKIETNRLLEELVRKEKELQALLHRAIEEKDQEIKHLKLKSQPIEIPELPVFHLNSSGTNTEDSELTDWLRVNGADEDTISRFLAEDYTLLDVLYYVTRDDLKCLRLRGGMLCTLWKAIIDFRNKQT

[4] = HeLa, protein MAP3K5 (MITOGEN-ACTIVATED PROTEIN KINASE KINASE KINASE 5)

SMILES	fold changes relative to vehicle control ([1]; HeLa, protein MCM5)	fold changes relative to vehicle control ([2]; HeLa, protein XPOT)	fold changes relative to vehicle control [3, 4]	fold changes relative to vehicle control [1]	fold changes relative to vehicle control [2]	fold changes relative to vehicle control [3]	fold changes relative to vehicle control ([1]; protein MCM5, HeLa)	fold changes relative to vehicle control ([3]; HeLa, protein MAP3K5)
Nc1nc2c(c(=O)[nH]1)N(C=O)C(CNc1ccc(C(=O)N[C@@H](CCC(=O)O)C(=O)O)cc1)CN2 (stereo partly drawn) [LEU, leucovorin]	0.94	0.94	1.13	–	–	–	–	–
Nc1nc2[nH]cc(CCc3ccc(C(=O)N[C@@H](CCC(=O)O)C(=O)O)cc3)c2c(=O)[nH]1 [PTX, pemetrexed]	–	–	–	1.12	0.84	1.18	–	–
CCCCCCOc1ccc(Cc2cnc(N)nc2N)cc1 [compound 1]	–	0.95	–	–	–	–	1.04	1.03
CCCCCCOc1cccc(Cc2cnc(N)nc2N)c1 [compound 2]	–	1.02	–	–	–	–	1.41	1.14
Nc1nc2cccc(-c3ccccc3)c2n1Cc1ccc(Cl)c(Cl)c1 [compound 3]	–	1.08	–	–	–	–	0.93	1.1
NCCOCCOCC(=O)Nc1nc2ncc(CNc3ccc(C(=O)NC(CCC(=O)O)C(=O)O)cc3)nc2c(=O)[nH]1 (stereo not drawn) [compound 6]	1.03	0.94	1.12	–	–	–	–	–
NCCCNc1ccc(C(=O)NC(CCC(=O)O)C(=O)O)cc1 (stereo not drawn) [compound 7]	0.98	0.99	1.09	–	–	–	–	–

— paper PMC6199744, “Development of Chemical Proteomics for the Folateome and Analysis of the Kinetoplastid Folateome” (ACS Infectious Diseases, 2018)
